Calls of active or inactive are those of the source. The calls are words filed in the database; no cut-off is given here.
Key:
Homo sapiens [1] = species on record: Homo sapiens; assay: Binding affinity to GABA transporter (unknown origin) at 10 uM by radioligand binding assay
[2] = molecular target: NAD-dependent protein deacetylase sirtuin-1 (Homo sapiens) (UniProt Q96EB6); assay: Inhibition of human sirtuin 1 at 10 uM; design: scale not given: the % may be the effect or the level left
[3] = molecular target: Prostaglandin E2 receptor EP4 subtype (Homo sapiens) (UniProt P35408); assay: Binding affinity to human EP4 receptor at 10 uM by radioligand binding assay
[4] = molecular target: cGMP-inhibited 3',5'-cyclic phosphodiesterase 3A (Homo sapiens) (UniProt Q14432); assay: Binding affinity to human PDE3A at 10 uM
[5] = molecular target: Progesterone receptor (Homo sapiens) (UniProt P06401); assay: Binding affinity to human progesterone receptor at 10 uM by radioligand binding assay
[6] = molecular target: B2 bradykinin receptor (Homo sapiens) (UniProt P30411); assay: Binding affinity to human bradykinin 2 receptor at 10 uM by radioligand binding assay
[7] = molecular target: Histamine H1 receptor (Homo sapiens) (UniProt P35367); assay: Binding affinity to human histamine H1 receptor at 10 uM by radioligand binding assay
Histamine H1 receptor (Homo sapiens), sequence (P35367 whole entry): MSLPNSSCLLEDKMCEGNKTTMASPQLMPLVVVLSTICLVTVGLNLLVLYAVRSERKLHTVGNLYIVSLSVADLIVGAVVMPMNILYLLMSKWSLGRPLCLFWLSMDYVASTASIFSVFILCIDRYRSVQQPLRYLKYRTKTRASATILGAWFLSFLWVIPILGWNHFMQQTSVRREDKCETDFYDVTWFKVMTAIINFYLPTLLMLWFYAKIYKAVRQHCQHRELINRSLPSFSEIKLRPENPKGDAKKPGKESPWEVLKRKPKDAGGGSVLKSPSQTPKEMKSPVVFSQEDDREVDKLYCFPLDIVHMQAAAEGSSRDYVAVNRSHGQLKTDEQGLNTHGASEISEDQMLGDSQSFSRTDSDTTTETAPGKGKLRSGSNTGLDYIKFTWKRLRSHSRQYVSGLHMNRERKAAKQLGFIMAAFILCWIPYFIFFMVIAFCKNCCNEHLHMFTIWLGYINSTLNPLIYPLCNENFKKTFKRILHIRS

[8] = molecular target: Melanocortin receptor 4 (Homo sapiens) (UniProt P32245); assay: Binding affinity to human melanocortin-4 receptor at 10 uM by radioligand binding assay
Melanocortin receptor 4 (Homo sapiens), sequence (P32245 whole entry): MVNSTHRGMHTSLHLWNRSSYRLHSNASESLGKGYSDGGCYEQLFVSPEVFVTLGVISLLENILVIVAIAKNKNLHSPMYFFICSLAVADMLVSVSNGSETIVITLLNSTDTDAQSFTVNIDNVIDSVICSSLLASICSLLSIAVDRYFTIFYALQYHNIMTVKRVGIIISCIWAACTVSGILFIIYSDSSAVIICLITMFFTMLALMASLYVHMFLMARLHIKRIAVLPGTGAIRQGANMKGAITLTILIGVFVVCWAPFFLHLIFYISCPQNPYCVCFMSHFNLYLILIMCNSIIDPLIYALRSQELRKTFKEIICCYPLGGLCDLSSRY

[9] = molecular target: Substance-K receptor (Homo sapiens) (UniProt P21452); assay: Binding affinity to human NK2 receptor at 10 uM by radioligand binding assay
[10] = molecular target: Beta-1 adrenergic receptor (Homo sapiens) (UniProt P08588); assay: Binding affinity to beta-1 adrenergic receptor (unknown origin) at 10 uM by radioligand binding assay
Beta-1 adrenergic receptor (Homo sapiens), sequence (P08588 whole entry, looked up): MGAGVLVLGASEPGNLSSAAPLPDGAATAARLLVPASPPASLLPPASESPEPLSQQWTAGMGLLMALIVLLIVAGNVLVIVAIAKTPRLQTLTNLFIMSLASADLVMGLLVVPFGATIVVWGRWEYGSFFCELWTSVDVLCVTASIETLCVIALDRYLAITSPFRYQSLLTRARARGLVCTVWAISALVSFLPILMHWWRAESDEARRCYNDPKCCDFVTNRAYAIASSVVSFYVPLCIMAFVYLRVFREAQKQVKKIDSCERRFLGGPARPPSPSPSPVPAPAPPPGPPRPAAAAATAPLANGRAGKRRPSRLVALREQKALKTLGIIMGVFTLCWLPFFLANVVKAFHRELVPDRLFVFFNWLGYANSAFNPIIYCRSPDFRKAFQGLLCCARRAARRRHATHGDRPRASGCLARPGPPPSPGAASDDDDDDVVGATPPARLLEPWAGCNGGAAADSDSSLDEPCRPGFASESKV

[11] = molecular target: Nociceptin receptor (Homo sapiens) (UniProt P41146); assay: Binding affinity to human NOP receptor at 10 uM by radioligand binding assay
Homo sapiens [12] = species on record: Homo sapiens; assay: Binding affinity to 5-HT1 receptor (unknown origin) at 10 uM
[13] = molecular target: cGMP-specific 3',5'-cyclic phosphodiesterase (Homo sapiens) (UniProt O76074); assay: Binding affinity to human PDE5 at 10 uM
[14] = molecular target: Histone deacetylase 4 (Homo sapiens) (UniProt P56524); assay: Binding affinity to human HDAC4 at 10 uM
[15] = molecular target: Tyrosine 3-monooxygenase (Homo sapiens) (UniProt P07101); assay: Binding affinity to tyrosine hydroxylase (unknown origin) at 10 uM
[16] = molecular target: D(4) dopamine receptor (Homo sapiens) (UniProt P21917); assay: Binding affinity to human dopamine D4.4 receptor at 10 uM by radioligand binding assay
[17] = molecular target: Dual specificity calcium/calmodulin-dependent 3',5'-cyclic nucleotide phosphodiesterase 1B (Homo sapiens) (UniProt Q01064); assay: Binding affinity to human PDE1B at 10 uM
[18] = molecular target: Kinesin-like protein KIF11 (Homo sapiens) (UniProt P52732); assay: Binding affinity to human Eg5 at 10 uM
Kinesin-like protein KIF11 (Homo sapiens), sequence (P52732 whole entry): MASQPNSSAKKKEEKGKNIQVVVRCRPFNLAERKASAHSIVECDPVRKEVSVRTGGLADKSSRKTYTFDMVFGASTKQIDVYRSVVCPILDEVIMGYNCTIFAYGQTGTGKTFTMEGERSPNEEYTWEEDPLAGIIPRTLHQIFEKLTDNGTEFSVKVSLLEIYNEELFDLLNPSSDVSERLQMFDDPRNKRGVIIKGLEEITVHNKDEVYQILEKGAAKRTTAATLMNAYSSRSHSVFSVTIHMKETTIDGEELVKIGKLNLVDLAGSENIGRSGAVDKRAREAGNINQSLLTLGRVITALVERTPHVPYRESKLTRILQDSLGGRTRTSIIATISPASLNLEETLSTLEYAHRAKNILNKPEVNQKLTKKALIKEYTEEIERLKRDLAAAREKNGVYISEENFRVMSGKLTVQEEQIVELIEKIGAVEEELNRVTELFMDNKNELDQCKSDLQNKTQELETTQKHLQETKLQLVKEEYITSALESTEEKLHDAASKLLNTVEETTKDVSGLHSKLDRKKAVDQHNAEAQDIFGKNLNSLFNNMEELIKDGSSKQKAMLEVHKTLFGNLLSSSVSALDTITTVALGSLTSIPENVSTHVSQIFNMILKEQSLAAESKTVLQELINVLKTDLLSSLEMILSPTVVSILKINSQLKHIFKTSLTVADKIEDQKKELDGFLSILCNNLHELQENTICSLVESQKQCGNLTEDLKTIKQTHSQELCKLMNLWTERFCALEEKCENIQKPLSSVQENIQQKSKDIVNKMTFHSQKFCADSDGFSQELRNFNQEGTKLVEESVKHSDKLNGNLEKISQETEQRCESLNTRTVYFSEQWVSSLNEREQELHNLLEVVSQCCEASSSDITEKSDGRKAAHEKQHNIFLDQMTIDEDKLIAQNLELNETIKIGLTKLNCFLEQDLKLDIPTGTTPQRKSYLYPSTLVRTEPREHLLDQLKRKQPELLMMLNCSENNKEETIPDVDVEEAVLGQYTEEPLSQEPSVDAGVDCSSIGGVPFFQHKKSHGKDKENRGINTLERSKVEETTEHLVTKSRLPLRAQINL

[19] = molecular target: Tyrosine-protein phosphatase non-receptor type 1 (Homo sapiens) (UniProt P18031); assay: Binding affinity to PTPN1 (unknown origin) at 10 uM
Homo sapiens [20] = species on record: Homo sapiens; assay: Binding affinity to AMPA receptor (unknown origin) at 10 uM by radioligand binding assay
Homo sapiens [21] = species on record: Homo sapiens; assay: Binding affinity to P2Y receptor (unknown origin) at 10 uM by radioligand binding assay
[22] = molecular target: Secretory phospholipase A2 receptor (Homo sapiens) (UniProt Q13018); assay: Binding affinity to human sPLA2 at 10 uM
[23] = molecular target: Acetylcholinesterase (Homo sapiens) (UniProt P22303); assay: Binding affinity to human acetylcholinesterase at 10 uM
[24] = molecular target: Cannabinoid receptor 2 (Homo sapiens) (UniProt P34972); assay: Binding affinity to human cannabinoid receptor 2 at 10 uM by radioligand binding assay
[25] = molecular target: Adrenergic receptor alpha-2 (Homo sapiens) (UniProt P08913+P18825+P18089); assay: Binding affinity to alpha-2 adrenergic receptor (unknown origin) at 10 uM by radioligand binding assay
Homo sapiens [26] = species on record: Homo sapiens; assay: Binding affinity to central-type benzodiazepine receptor (unknown origin) at 10 uM by radioligand binding assay
[27] = molecular target: NAD-dependent protein deacetylase sirtuin-2 (Homo sapiens) (UniProt Q8IXJ6); assay: Inhibition of human sirtuin 2 at 10 uM; design: scale not given: the % may be the effect or the level left
NAD-dependent protein deacetylase sirtuin-2 (Homo sapiens), sequence (Q8IXJ6 whole entry): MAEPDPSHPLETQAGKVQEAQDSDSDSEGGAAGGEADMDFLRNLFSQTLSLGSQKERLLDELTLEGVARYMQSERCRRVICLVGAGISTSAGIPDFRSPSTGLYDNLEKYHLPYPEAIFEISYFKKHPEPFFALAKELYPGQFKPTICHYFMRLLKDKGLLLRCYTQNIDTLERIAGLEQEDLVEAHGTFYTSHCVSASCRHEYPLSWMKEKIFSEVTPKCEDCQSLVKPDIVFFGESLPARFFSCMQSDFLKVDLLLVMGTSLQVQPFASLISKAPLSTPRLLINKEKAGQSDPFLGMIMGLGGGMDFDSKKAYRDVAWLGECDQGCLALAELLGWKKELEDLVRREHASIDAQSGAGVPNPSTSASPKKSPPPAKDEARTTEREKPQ

[28] = molecular target: Proteinase-activated receptor 2 (Homo sapiens) (UniProt P55085); assay: Binding affinity to human PAR2 receptor at 10 uM by radioligand binding assay
Proteinase-activated receptor 2 (Homo sapiens), sequence (P55085 whole entry): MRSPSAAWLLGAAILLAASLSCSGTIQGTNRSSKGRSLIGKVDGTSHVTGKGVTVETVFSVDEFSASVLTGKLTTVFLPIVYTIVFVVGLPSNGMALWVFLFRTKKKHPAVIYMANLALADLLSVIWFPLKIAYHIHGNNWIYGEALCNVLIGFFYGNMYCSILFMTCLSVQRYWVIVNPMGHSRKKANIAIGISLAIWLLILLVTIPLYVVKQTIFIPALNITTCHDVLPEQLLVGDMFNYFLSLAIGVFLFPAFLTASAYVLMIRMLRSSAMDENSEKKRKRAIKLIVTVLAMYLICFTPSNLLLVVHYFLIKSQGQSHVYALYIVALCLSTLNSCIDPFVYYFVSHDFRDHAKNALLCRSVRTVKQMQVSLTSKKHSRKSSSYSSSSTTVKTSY

[29] = molecular target: B1 bradykinin receptor (Homo sapiens) (UniProt P46663); assay: Binding affinity to human bradykinin 1 receptor at 10 uM by radioligand binding assay
[30] = molecular target: Endothelin-1 receptor (Homo sapiens) (UniProt P25101); assay: Binding affinity to human ETA receptor at 10 uM by radioligand binding assay
Endothelin-1 receptor (Homo sapiens), sequence (P25101 whole entry): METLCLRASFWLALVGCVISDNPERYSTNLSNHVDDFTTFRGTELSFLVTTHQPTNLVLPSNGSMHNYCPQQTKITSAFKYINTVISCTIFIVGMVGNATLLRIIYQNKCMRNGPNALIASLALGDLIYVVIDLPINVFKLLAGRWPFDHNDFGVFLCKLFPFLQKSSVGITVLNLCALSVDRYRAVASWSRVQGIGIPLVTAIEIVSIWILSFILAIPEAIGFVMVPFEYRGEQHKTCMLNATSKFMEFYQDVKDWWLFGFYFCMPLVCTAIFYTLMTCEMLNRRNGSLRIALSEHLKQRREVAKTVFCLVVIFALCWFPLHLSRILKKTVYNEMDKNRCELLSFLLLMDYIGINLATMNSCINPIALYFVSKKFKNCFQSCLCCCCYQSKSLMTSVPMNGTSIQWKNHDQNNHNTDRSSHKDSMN

Homo sapiens [31] = species on record: Homo sapiens; assay: Binding affinity to kainate receptor (unknown origin) at 10 uM by radioligand binding assay
Mus musculus [32] = assay: In-vivo inhibition of COX in mouse plasma assessed as decrease in 6-keto-PGF1-alpha level at 1 mg/kg, iv after 1 hr by LC-MS/MS analysis; type: functional, organism-based
[33] = molecular target: Amine oxidase [flavin-containing] B (Homo sapiens, UniProt P27338); assay: Binding affinity to recombinant human MAO-B at 10 uM
[34] = molecular target: Neuromedin-K receptor (Homo sapiens) (UniProt P29371); assay: Binding affinity to human neurokinin 3 receptor at 10 uM by radioligand binding assay
[35] = molecular target: Peroxisome proliferator-activated receptor gamma (Homo sapiens) (UniProt P37231); assay: Binding affinity to human PPAR-gamma receptor at 10 uM by radioligand binding assay
Peroxisome proliferator-activated receptor gamma (Homo sapiens), sequence (P37231 whole entry): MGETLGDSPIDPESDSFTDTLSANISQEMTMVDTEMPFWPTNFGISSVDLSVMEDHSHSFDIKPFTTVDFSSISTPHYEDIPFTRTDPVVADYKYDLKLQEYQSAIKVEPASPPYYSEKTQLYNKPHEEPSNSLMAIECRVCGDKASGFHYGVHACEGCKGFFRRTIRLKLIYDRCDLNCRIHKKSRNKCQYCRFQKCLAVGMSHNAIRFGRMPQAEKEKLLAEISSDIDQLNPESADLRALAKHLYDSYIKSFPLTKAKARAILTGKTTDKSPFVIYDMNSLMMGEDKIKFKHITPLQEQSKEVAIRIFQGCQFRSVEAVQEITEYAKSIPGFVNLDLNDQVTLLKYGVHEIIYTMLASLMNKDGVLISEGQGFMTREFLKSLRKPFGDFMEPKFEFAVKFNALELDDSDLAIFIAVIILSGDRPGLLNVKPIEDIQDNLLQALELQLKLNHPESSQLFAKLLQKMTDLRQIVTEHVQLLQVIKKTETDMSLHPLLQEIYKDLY

[36] = molecular target: Gastrin/cholecystokinin type B receptor (Homo sapiens) (UniProt P32239); assay: Binding affinity to human cholecystokinin receptor type B at 10 uM by radioligand binding assay
[37] = molecular target: Sodium-dependent dopamine transporter (Homo sapiens) (UniProt Q01959); assay: Binding affinity to human dopamine transporter at 10 uM by radioligand binding assay
Homo sapiens [38] = species on record: Homo sapiens; assay: Binding affinity to GABA-gated chloride channel (unknown origin) at 10 uM by radioligand binding assay
[39] = molecular target: Sodium-dependent serotonin transporter (Homo sapiens) (UniProt P31645); assay: Binding affinity to human 5-HT transporter at 10 uM by radioligand binding assay
Sodium-dependent serotonin transporter (Homo sapiens), sequence (P31645 whole entry, looked up): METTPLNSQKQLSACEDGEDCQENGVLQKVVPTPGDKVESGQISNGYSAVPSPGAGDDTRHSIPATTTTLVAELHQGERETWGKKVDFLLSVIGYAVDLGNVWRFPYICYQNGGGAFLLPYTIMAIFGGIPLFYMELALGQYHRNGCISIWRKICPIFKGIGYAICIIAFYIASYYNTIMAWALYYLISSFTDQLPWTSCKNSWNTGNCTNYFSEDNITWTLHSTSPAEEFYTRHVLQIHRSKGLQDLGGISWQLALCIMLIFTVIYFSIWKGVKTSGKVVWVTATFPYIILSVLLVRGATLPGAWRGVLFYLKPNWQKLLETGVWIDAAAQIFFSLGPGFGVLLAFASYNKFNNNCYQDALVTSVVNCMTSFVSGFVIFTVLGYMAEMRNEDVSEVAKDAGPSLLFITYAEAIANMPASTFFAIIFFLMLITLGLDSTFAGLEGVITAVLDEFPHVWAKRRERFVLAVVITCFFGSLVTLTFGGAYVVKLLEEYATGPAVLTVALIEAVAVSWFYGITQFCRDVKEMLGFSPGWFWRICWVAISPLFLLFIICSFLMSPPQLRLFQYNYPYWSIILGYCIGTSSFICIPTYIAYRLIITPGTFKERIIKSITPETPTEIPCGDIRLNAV

Mus musculus [40] = assay: In-vivo inhibition of FAAH in mouse plasma assessed as increase in OEA level at 1 mg/kg, iv after 1 hr by LC-MS/MS analysis; type: functional, organism-based
[41] = molecular target: Prostaglandin E2 receptor EP2 subtype (Homo sapiens) (UniProt P43116); assay: Binding affinity to human EP2 receptor at 10 uM by radioligand binding assay
[42] = molecular target: Substance-P receptor (Homo sapiens) (UniProt P25103); assay: Binding affinity to human NK1 receptor at 10 uM by radioligand binding assay
[43] = molecular target: Protein deacetylase HDAC6 (Homo sapiens) (UniProt Q9UBN7); assay: Binding affinity to human HDAC6 at 10 uM
Homo sapiens [44] = species on record: Homo sapiens; assay: Binding affinity to I2 imidazoline binding site (unknown origin) at 10 uM by radioligand binding assay

`CCCCCCNC(=O)Oc1cccc(-c2ccc([C@H](C)C(=O)O)cc2F)c1` was tested, and the Activity (Homo sapiens [1]) was -3.3%, the Activity [2] was -1.5% and the Activity [3] was 18.7%. For the same molecule, the Activity [4] was 0.3%, the Activity [5] was -9.5% and the Activity [6] was -4.3%. For the same molecule, the Activity [7] was 1.8%, the Activity [8] was 0.9% and the Activity [9] was -1.6%. It also gave an Activity [10] of 5.2%, an Activity [11] of -1.7% and an Activity (Homo sapiens [12]) of 7.8%. It also gave an Activity [13] of -21.9%, an Activity [14] of -8.7% and an Activity [15] of 0.8%. The Activity [16] was -4.4%, the Activity [17] was 28.3% and the Activity [18] was 3.5%. For the same molecule, the Activity [19] was -5.3%, the Activity (Homo sapiens [20]) was -4.6% and the Activity (Homo sapiens [21]) was 17.7%. It also gave an Activity [22] of 0.4%, an Activity [23] of -4.8% and an Activity [24] of -3%. The Activity [25] was -13.6%, the Activity (Homo sapiens [26]) was -51.5% and the Activity [27] was 1.3%. The Activity [28] was 3.2%, the Activity [29] was -5.1% and the Activity [30] was -6.2%. The Activity (Homo sapiens [31]) was 17.1%, the inhibition (Mus musculus [32]) was “Active” and the Activity [33] was -15.4%. The Activity [34] was 2.8%, the Activity [35] was 80.1% and the Activity [36] was 26.5%. It also gave an Activity [37] of 13.5%, an Activity (Homo sapiens [38]) of 36% and an Activity [39] of -1.4%. The inhibition (Mus musculus [40]) was “Active”, the Activity [41] was 45% and the Activity [42] was -6.3%. The Activity [43] was -10.6% and the Activity (Homo sapiens [44]) was -1.8%.
